Results as given in patent publication US7893069B2, “Substituted imidazo[2,1-b]thiazole compounds and uses thereof” (Gruenenthal GmbH, priority 2006, dated 2011).
Structures can show the parent of a compound that is named as a salt.

Tests used:
mGluR5 receptor (pig) = target: T1, mGluR5 receptor (pig) (Sus scrofa, UniProt I3LUI7); test: [3H]-MPEP binding assay, pig brain homogenate; conditions: for IC50: displacement of 5 nM [3H]-MPEP, 450 μg protein from pig brain homogenate, 60 min, room temperature, read-out: IC50 [3H]-MPEP bond mGluR5 receptor (pig); for inhibition at 10 µM: test compound 10 μM, inhibition of [3H]-MPEP binding, pig brain homogenate
T1 construct: 450 μg protein from brain homogenate is incubated with 5 nM; from tissue; host or cells: pig brain halves without medulla, cerebellum and pons; homogenate, differential centrifugation
T1 sequence (I3LUI7 19-1212): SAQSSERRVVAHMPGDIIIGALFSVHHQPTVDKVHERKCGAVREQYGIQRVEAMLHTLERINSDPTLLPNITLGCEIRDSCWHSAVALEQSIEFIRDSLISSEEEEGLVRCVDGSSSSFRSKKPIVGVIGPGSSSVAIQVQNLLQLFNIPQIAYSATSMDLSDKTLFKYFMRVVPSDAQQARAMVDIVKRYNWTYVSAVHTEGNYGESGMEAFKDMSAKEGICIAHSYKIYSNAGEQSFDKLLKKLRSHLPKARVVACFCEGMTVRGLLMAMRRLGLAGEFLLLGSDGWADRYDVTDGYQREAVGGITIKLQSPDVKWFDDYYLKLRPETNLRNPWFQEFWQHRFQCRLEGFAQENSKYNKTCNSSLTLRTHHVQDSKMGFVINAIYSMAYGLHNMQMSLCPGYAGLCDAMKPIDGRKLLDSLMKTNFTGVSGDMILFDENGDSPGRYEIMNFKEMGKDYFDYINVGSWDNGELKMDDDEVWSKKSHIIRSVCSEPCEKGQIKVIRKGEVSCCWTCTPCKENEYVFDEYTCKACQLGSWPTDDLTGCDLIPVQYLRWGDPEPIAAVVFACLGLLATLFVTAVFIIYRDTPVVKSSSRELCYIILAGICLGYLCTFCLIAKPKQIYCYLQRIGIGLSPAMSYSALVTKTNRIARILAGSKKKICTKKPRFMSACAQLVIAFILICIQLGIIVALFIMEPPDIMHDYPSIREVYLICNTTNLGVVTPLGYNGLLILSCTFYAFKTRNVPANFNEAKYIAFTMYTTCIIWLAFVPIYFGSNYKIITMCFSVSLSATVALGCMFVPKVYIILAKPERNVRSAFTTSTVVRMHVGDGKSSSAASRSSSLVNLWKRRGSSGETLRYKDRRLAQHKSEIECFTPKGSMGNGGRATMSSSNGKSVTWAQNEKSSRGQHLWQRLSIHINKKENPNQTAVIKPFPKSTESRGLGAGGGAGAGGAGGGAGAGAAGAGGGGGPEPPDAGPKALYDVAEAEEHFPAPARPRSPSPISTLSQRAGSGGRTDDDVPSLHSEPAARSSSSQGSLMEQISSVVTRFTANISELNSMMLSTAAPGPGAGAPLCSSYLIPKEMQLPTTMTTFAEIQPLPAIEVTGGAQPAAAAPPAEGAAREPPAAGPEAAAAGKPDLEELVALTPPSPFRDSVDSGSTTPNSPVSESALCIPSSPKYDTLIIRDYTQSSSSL
Method: Substituted imidazo[2,1-b]thiazole compounds corresponding to the foregoing formula I are likewise particularly preferred, which, after 60 minutes of incubation in 450 μg protein from pig brain homogenate at a temperature between 20° C. and 25° C. in a concentration of less than 2500 nM, preferably less than 1000 nM, particularly preferably less than 700 nM, very particularly preferably less than 100 nM, even more preferably less than 70 nM, bring about a 50-percent displacement of [^3H]-2-methyl-6-(3-methoxyphenyl)-ethynylpyridine which is present in a concentration of 5 nM. The determination of the displacement of [^3H]-2-methyl-6-(3-methoxyphenyl)-ethynyl-pyridine is performed as described hereinafter in the section Pharmacological Methods, I. Method for determining the inhibition of [^3H]-MPEP-bonding in the mGluR5 receptor bonding assay.
1. Method for Determining the Affinity to the mGluR5 Receptor
Pig brain homogenate is produced by homogenization (Polytron PT 3000, Kinematica AG, 10,000 rpm for 90 seconds) of pig brain halves without medulla, cerebellum and pons in buffer pH 8.0 (30 mM Hepes, Sigma, order no. H3375+1 tablet complete to 100 ml, Roche Diagnostics, order no. 1836145) in ratio 1:20 (brain weight/volume) and differential centrifugation at 900×g and 40,000×g. In each case, 450 μg protein from brain homogenate is incubated with 5 nM ^3-[H]-MPEP (Tocris, order no. R1212) (MPEP=2-methyl-6-(3-methoxyphenyl)-ethynylpyridine) in 250 μl incubation batches in 96 well microtitration plates and the compounds to be tested (10 μM in the test) in buffer (as above) at room temperature for 60 min.
Thereafter, the batches are filtered with the help of a Brandel Cell Harvester (Brandel, TYP Robotic 9600) on unifilter plates with glass fibre filter mats (Perkin Elmer, order no. 6005177) and subsequently washed with buffer (as above) 3 times with in each case 250 μl per sample. The filter plates are subsequently dried for 60 min at 55° C. 30 μL Ultima Gold™ scintillator is subsequently added per well (Packard BioScience, order no. 6013159) and the samples are measured after 3 hours on the β-counter (Mikrobeta, Perkin Elmer). The unspecific bond is determined by addition of 10 μM MPEP (Tocris, order no. 1212).

rat = test: Formalin test in rats (phase 2, chronic pain component); assay type: in vivo; conditions: administered 30 min before formalin
Method: 2a. Formalin Test in Rats The formalin test (Dubuisson, D. and Dennis, S. G., 1977, Pain, 4, 161-174) represents a model for acute and chronic pain. A biphasic nociceptive reaction, which is recorded by observation of three clearly differentiable behavioural patterns, is induced by a single formalin injection into the dorsal side of a rear paw in freely mobile test animals. The reaction has two phases: Phase 1=Immediate reaction (duration up to 10 min; paw shaking, licking), Phase 2=Late reaction (after a rest phase; likewise, paw shaking, licking; duration up to 60 min). The 1st phase reflects a direct stimulation of the peripheral nocisensors with high spinal nociceptive input or glutamate release (acute pain phase); the 2nd phase reflects a spinal and peripheral hypersensitisation (chronic pain phase). In the investigations presented here, the chronic pain component (phase 2) was evaluated. Formalin with a volume of 50 μl and a concentration of 5% is administered subcutaneously into the dorsal side of the right rear paw of each animal. The substances to be tested are administered 30 min before the formalin injection orally (p.o), intravenously (i.v.) or intraperitoneally (i.p.). The specific changes in behavior such as lifting and shaking the paw, shifts in weight of the animal as well as biting and licking reactions are observed and registered in the period of observation from 21 to 27 min after formalin injection. The various forms of behavior are summarized in the so-called pain rate (PR), which, relative to the sub-intervals of 3 min, represents the calculation of an average nociception reaction. […] The group size is 10 animals (n=10). 2b. Formalin Test in Mice

SMILES | IC50 (mGluR5 receptor (pig)) [nM] | also measured
CC(C)(C)CC(C)(C)Nc1c(-c2ccc(C#Cc3ccccc3)s2)nc2sccn12 [Example 1, 6-(5-(phenylethynyl)thiophene-2-yl)-N-(2,4,4-trimethylpentane-2-yl)imidazo[2,1-b]thiazole-5-amine] | 2180 | –
CC(C)(C)Nc1c(-c2ccc(C#Cc3ccccn3)s2)nc2sccn12 [Example 2, N-tert-butyl-6-(5-(pyridine-2-ylethynyl)thiophene-2-yl)imidazo[2,1-b]thiazole-5-amine] | 6.3 | ED50 (rat; iv, observed 21 to 27 min after formalin injection): 0.47 mg/kg; Formalin test (rat) p.o. Reduction in the nociceptive behavior over controls at 10 mg/kg (rat; p.o., 10 mg/kg): 66%
Cc1csc2nc(-c3ccc(C#Cc4ccccn4)s3)c(NC(C)(C)C)n12 [Example 3, N-tert-butyl-3-methyl-6-(5-(pyridine-2-ylethynyl)thiophene-2-yl)imidazo[2,1-b]thiazole-5-amine hydrochloride] | 12 | –
Cc1sc2nc(-c3ccc(C#Cc4ccccn4)s3)c(NC(C)(C)C)n2c1C [Example 5, N-tert-butyl-2,3-dimethyl-6-(5-(pyridine-2-ylethinyl)thiophene-2-yl)-imidazo[2,1-b]thiazole-5-amine hydrochloride] | 17 | –
CC(C)(C)Nc1c(-c2ccc(C#Cc3ccccn3)s2)nc2sc(Cl)cn12 [Example 6, N-tert-butyl-2-chloro-6-(5-(pyridine-2-ylethinyl)thiophene-2-yl)-imidazo[2,1-b]thiazole-5-amine hydrochloride] | 9.9 | –
COC(=O)c1cn2c(NC(C)(C)C)c(-c3ccc(C#Cc4ccccn4)s3)nc2s1 [Example 8, 5-(tert-butylamino)-6-(5-(pyridine-2-ylethinyl)thiophene-2-yl)-imidazo[2,1-b]thiazole-2-carbonic acid methylester hydrochloride] | 160 | –
CC(C)(C)CC(C)(C)Nc1c(-c2ccc(C#Cc3ccccn3)s2)nc2sccn12 [Example 10] | 100 | –
Cc1cn2c(NC(C)(C)C)c(-c3ccc(C#Cc4ccccn4)cc3)nc2s1 [Example 11, N-tert-butyl-2-methyl-6-(4-(pyridine-2-ylethynyl)phenyl)imidazo[2,1-b]thiazole-5-amine] | 20 | –
CC(C)(C)Nc1c(-c2ccc(C#Cc3ccccn3)o2)nc2sccn12 [Example 12, N-tert-butyl-6-(5-(pyridine-2-ylethynyl)furan-2-yl)imidazo[2,1-b]thiazole-5-amine] | 87 | –
Cc1csc2nc(-c3ccc(C#Cc4ccccc4)s3)c(NC(C)(C)C)n12 [Example 13, N-tert-butyl-3-methyl-6-(5-(phenylethynyl)thiophene-2-yl)imidazo[2,1-b]thiazole-5-amine] | – | inhibition at 10 µM (mGluR5 receptor (pig)): 48%
Nc1c(-c2ccc(C#Cc3ccccn3)s2)nc2sccn12 [Example 14, 6-(5-(pyridine-2-ylethynyl)thiophene-2-yl)imidazo[2,1-b]thiazole-5-amine] | 140 | –
CC(C)(C)Nc1c(-c2ccc(C#Cc3ncccn3)s2)nc2sccn12 [Example 15, N-tert-butyl-6-(5-(pyrimidine-2-ylethynyl)thiophene-2-yl)imidazo[2,1-b]thiazole-5-amine] | 10 | –
CC(C)(C)Nc1c(-c2ccc(C#Cc3ncccc3F)s2)nc2sccn12 [Example 16, N-tert-butyl-6-(5-((3-fluoropyridine-2-yl)ethynyl)thiophene-2-yl)imidazo[2,1-b]thiazole-5-amine] | 13 | –
CC(C)(C)Nc1c(-c2ccc(C#Cc3ccnc(F)c3)s2)nc2sccn12 [Example 17, N-tert-butyl-6-(5-((2-fluoropyridine-4-yl)ethynyl)thiophene-2-yl)imidazo[2,1-b]thiazole-5-amine] | 18 | –
CC(C)(C)Nc1c(-c2ccc(C#Cc3cccs3)s2)nc2sccn12 [Example 18, N-tert-butyl-6-(5-(thiophene-2-ylethynyl)thiophene-2-yl)imidazo[2,1-b]thiazole-5-amine] | 45 | –
CC(C)(C)Nc1c(-c2ccc(C#Cc3nccs3)s2)nc2sccn12 [Example 19, N-tert-butyl-6-(5-(thiazole-2-ylethynyl)thiophene-2-yl)imidazo[2,1-b]thiazole-5-amine] | 24 | –
CC(C)(C)Nc1c(-c2ccc(C#Cc3cccc(O)c3)s2)nc2sccn12 [Example 20, 3-((5-(5-(tert-butylamino)imidazo[2,1-b]thiazole-6-yl)thiophene-2-yl)ethynyl)phenol] | 170 | –
CC(C)(C)Nc1c(-c2ccc(C#Cc3cccc(C#N)c3)s2)nc2sccn12 [Example 21, 3-((5-(5-(tert-butylamino)imidazo[2,1-b]thiazole-6-yl)thiophene-2-yl)ethynyl)benzonitrile] | 26 | –
CCNc1c(-c2ccc(C#Cc3ccccc3)nc2)nc2sccn12 [Example 22, N-ethyl-6-(6-(phenylethynyl)pyridine-3-yl)imidazo[2,1-b]thiazole-5-amine] | – | inhibition at 10 µM (mGluR5 receptor (pig)): 82%
Cc1cccnc1C#Cc1ccc(-c2nc3sccn3c2NC(C)(C)C)s1 [Example 23, N-tert-butyl-6-(5-((3-methylpyridine-2-yl)ethynyl)thiophene-2-yl)imidazo[2,1-b]thiazole-5-amine] | 230 | –
